The text below walks through data of patent publication US20010044151A1, “Ligands for modulating the expression of exogenous genes via an ecdysone receptor complex” (priority 1998, published 2001).

The assay addresses T1, ecdysteroid receptor complex in Plodia interpunctella (IAL-PID2) nuclear extract (Plodia interpunctella, UniProt Q6RVD3).
T1 sequence (Q6RVD3 1-541): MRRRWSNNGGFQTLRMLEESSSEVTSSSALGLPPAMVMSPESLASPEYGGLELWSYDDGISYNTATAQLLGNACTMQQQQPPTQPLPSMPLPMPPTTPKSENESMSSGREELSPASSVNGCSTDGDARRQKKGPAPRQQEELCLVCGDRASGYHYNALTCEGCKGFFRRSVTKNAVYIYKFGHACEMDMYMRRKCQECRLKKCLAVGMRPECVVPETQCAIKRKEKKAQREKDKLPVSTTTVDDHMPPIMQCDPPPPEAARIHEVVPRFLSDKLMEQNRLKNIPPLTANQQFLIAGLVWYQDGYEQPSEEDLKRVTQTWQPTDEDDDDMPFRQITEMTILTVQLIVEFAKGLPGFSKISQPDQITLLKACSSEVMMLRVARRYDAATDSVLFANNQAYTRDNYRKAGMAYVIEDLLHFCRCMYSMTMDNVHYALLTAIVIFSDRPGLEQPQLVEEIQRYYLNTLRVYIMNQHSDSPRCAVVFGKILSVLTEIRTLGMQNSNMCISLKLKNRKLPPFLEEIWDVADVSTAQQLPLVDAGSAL
T1 sequence (Q6IVK1 1-415 partner): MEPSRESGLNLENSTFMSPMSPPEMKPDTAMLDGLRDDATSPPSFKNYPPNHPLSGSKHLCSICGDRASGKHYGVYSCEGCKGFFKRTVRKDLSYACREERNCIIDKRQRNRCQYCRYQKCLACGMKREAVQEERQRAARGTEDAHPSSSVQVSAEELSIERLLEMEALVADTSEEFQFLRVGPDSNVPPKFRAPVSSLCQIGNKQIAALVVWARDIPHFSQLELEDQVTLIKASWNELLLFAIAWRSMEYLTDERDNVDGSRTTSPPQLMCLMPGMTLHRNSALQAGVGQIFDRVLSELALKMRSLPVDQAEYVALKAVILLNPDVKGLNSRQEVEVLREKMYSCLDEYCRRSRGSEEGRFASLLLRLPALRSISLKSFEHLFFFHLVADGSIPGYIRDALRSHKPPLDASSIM
Briefly: Competitive 3H-ponasterone A binding assay, Plodia nuclear ecdysone receptor extract. The note with it: 3H-ponasterone A displacement. As to the method:
The cell line IAL-PID2, derived from imaginal wing discs of the lepidopteran Plodia interpunctella was obtained from H. Oberlander and maintained as described (Lynn, E. E. and Oberlander, H., (1983), J. Insect Physiology, 29, 591-96). A 300 ml stationary phase culture of P. interpunctella cells was centrifuged at 700×g for 10 mm at room temperature to pellet the cells. The supernatant was aspirated and the cellular pellet resuspended in 35 ml TMT (TM buffer with 0.1% Triton X-100). The suspension was homogenized with twenty up and down strokes of a Dounce homogenizer on ice. Homogenate was incubated on ice for 10 minutes and then centrifuged for 15 min at 900×g. The pellet was resuspenced in 15 ml TM buffer and centrifuged at 2,300×g. This pellet was extracted in TMK buffer (TM buffer with 800 mM KCl) by using a glass rod to crush the pellet until a gelatinous slurry was formed and incubated on ice for 15 minutes. The extract was centrifuged at 100,000×g in a swinging bucket rotor for 60 minutes. The supernatant, which constituted the nuclear extract, was desalted on a 10 DG desalting column (Bio-Rad, 732-2010) equilibrated with T-buffer. The total protein concentration in the nuclear extract was adjusted to 5 mg per ml with T-buffer containing 1 mM DTT.
^3H ponasterone A, a potent phytoecdysteroid, (66,000 dpm; specific activity 170 Ci/mmole; NEN Life Science Products, Boston, Mass.) was mixed with 100 μl Kc cytosolic or Plodia nuclear ecdysone receptor extracts in […] glass test tubes in the absence or presence of 10 μM unlabelled 20-hydroxyecdysone (20E) to obtain an estimate of total or non-specific respectively, binding of tritiated ponasterone A. The tubes were vortexed and incubated overnight at 4° C. for Kc cytosolic extracts or 1.5 hours for Plodia nuclear extracts for binding reactions to reach equilibrium. At the end of equilibrium binding times, the bound tritiated ponasterone A was separated from the unbound by addition of ice-cold 600 μl or 300 μl dextran-coated charcoal solution (500 mg of Sigma HCL-washed activated charcoal, 50 mg Pharmacia Dextran T70, 50 ml T-buffer) to Kc or Plodia extracts, respectively. The tubes were vortexed briefly and centrifuged at 7,000×g to pellet the charcoal. The supernatant, 600 μl or 300 μl for Kc or Plodia extract reactions, respectively, containing tritiated ponasterone A bound to proteins, was aspirated into liquid scintillation vials containing 5 ml scintillation cocktail (ReadySafe®, Beckmann) each The mixture was vortexed and the amount of total or non-specifically bound radioactivity measured in a Beckmann LS500 liquid scinitllation counter with a 60% counting efficiency for tritium.
The concentrations of competitors that inhibited 50% of tritiated ponasterone A binding (IC50) was determined by incubating Kc or Plodia nuclear extracts or extracts of bacteria producing CfEcR(CDEF)-GST and CfUSP-GST fusions proteins with ^3H-ponasterone A (66,000 dpm per reaction) in the presence of a range of concentrations (0.1 nM to 10 μM) of test compounds. In the case of binding reactions using bacterial fusion proteins, 20 or one μl extract of bacteria producing CfEcR(CDEF)-GST or CfUSP-GST fusion proteins, respectively, were included per binding reaction. The assay conditions and determination of total and non-specific binding was as described above. The volume of competitor in solvent, like that for 20E or solvent alone, was kept at 1% of total reaction volume by using a 100 fold concentrated stock solution (i.e. a 100 fold dilution of stock solutions). The remainder of the assay was as described above. Each reaction was carried out in duplicate per concentration per test compound. Specific binding of ^3H-ponasterone A was determined by subtracting non-specific binding (that obtained in the presence of 10 μM 20E) from total (no competitor) or competed radioactivity bound. […]

Consider `Cc1cc(C)cc(C(=O)N(NC(=O)c2ccc3c(c2C)OCCO3)C(C)(C)C)c1` [Ligand 2], for which the “Plodia log(1/IC50)” value was determined as 9.14.

With `CCc1c(OC)cccc1C(=O)NN(C(=O)c1cc(C)cc(C)c1)C(C)(C)C` [Ligand 5], the “Plodia log(1/IC50)” value is given as 9.49. In the case of `CCc1c(OC)cccc1C(=O)NN(C(=O)c1cc(Cl)cc(Cl)c1)C(C)(C)C` [Ligand 13], the “Plodia log(1/IC50)” value was found to be 9.06. For `CCc1c(OC)cccc1C(=O)NN(C(=O)c1cc(F)cc(F)c1)C(C)(C)C` [Ligand 4], the “Plodia log(1/IC50)” value is recorded as 8.51. Next, `CCOc1cccc(C(=O)NN(C(=O)c2cc(C)cc(C)c2)C(C)(C)C)c1CC` [Ligand 12]: 9.63; `COc1cccc(C(=O)NN(C(=O)c2cc(C)cc(C)c2)C(C)(C)C)c1C` [Ligand 3]: 9.04. On to `CCc1c(OC)cccc1C(=O)NN(C(=O)c1cccc(OC)c1)C(C)(C)C` [Ligand 1], for which the “Plodia log(1/IC50)” value turned out to be 8.52.
